Measured values reported in PMC10290117, “Molecular mechanism of phosphopeptide neoantigen immunogenicity” (Nature Communications, 2023).

These substances were tested on TCR27-AKD10R3 cells (assay: X-scan (peptide scan), EGFP reporter effector cells). Conditions: Fig. 1c source data, HLA B*07, T2 cells pulsed with 25 μg peptide per 1 × 10^6 cells, 2 h, 37 °C, effector cells 2:1 overnight, mean value of triplicate.
Assay type: cell-based, murine
Method: Tap-deficient T2 (174x CEM.T2) HLA-B*0702+ cells were received from Dr. Victor Engelhard. These and the commercially purchased Tap-deficient T2 (174 x CEM.T2) cells (ATCC CRL 1991) were maintained in RPMI 1640 (BioConcept) supplemented with 10% fetal calf serum (FCS, HyClone), 2mM L-glutamine and 1% Penicillin/Streptomycin at 37 °C and 5% CO2. The EGFP reporter cell line was based on a murine TCR negative thymoma cell line derived from strain BW5417 (ATCC®TIB-47TM) and was stably transduced with (a) TCR27 in which the human constant regions were replaced with those of mouse, (b) a chimeric mouse/human CD8, and (c) an EGFP reporter construct linked to a minimal IL-2 promoter comprising three NFAT-binding sites (3xNFAT)[44]. The transduced cells were termed TCR27-AKD10R3 cells and will be called the effector cells. Mouse cell lines were cultured in SF-IMDM (BioConcept) supplemented with 3% FCS, 1% Penicillin/Streptomycin, and 50 μM beta-mercaptoethanol at 37 °C and 10% CO2.
Peptides were dissolved in dimethyl sulfoxide (DMSO) at concentrations of 2–20 mg/mL, aliquoted and stored at −80 °C. Peptide-pulsing experiments were performed by pre-incubating T2 cells with 25 μg peptide per 1 × 10^6 cells in PBS for 2 h at 37 °C and 5% CO2, washed three times to remove unbound peptides and used for further downstream analysis. Peptide-pulsed T2 cells were incubated with effector cells in a 2:1 ratio overnight in SF-IMDM at 37 °C and 10% CO2, washed twice and stained with anti-mouse TCR-® chain clone H57-597 (BD Pharmingen #560656, 1:500) for 30 min at RT. Cells were washed twice before FACS-analysis using a BD FACS Canto II with System software v2.0. Data analysis was performed using FlowJo V10 Software. Binding affinity between each peptide and HLA-B*0702 was determined using an Alpha assay. It is a homogenous, proximity-based assay for detection of peptides binding to HLA class I molecules using a conformation-dependent anti-HLA class I antibody, W6/32, as one tag and a biotinylated recombinant HLA class I molecule as the other tag, and a proximity-based signal was generated through the luminescent oxygen channeling immunoassay technology (PerkinElmer) as described.
To identify the off-target peptides we have utilized an approach that was developed previously. In brief, we investigated which amino acids at each position in pMLL747–755 enable TCR interaction by sequentially replacing every amino acid position outside of the anchor positions 2 and 9 with all 19 alternative amino acids, resulting in 134 peptides (133 altered peptides plus original epitope). Each peptide was individually evaluated using cell-based in vitro cytotoxicity assay. To represent the TCR recognition kernel, we have defined Position Weight Matrices (PWMs) for each assay by assigning normalized measurements to each of the 20 amino acids in each position. To predict potential off-target peptides, we applied an algorithm projecting the PWM-defined kernel into the human proteome, scoring TCR27 recognition for the predicted HLA-B^*0702 binding 9-mer peptides. Of the 11 peptides with highest predicted cross-reactivity scores, we confirmed that only 2, […] and pDOT1L998–1006, strongly activated the TCR27-expressing effector T cells.

Substance	Percentage GFP positive from TCR+ cells [%]
EPRsPIHSM [single-residue substitution of pMLL747–755, Pos 6]	0.85
EPRsPKHSM [single-residue substitution of pMLL747–755, Pos 6]	0.87
EPRsPLHSM [single-residue substitution of pMLL747–755, Pos 6]	0.96
EPRsPMHSM [single-residue substitution of pMLL747–755, Pos 6]	0.73
EPRsPNHSM [single-residue substitution of pMLL747–755, Pos 6]	12.1
EPRsPPHSM [single-residue substitution of pMLL747–755, Pos 6]	0.96
EPRsPQHSM [single-residue substitution of pMLL747–755, Pos 6]	0.89
EPRsPRHSM [single-residue substitution of pMLL747–755, Pos 6]	0.98
EPRsPSASM [single-residue substitution of pMLL747–755, Pos 7]	0.88
EPRsPSCSM [single-residue substitution of pMLL747–755, Pos 7]	0.97
EPRsPSDSM [single-residue substitution of pMLL747–755, Pos 7]	0.72
EPRsPSESM [single-residue substitution of pMLL747–755, Pos 7]	1.15
EPRsPSFSM [single-residue substitution of pMLL747–755, Pos 7]	0.97
EPRsPSGSM [single-residue substitution of pMLL747–755, Pos 7]	0.85
EPRsPSHAM [single-residue substitution of pMLL747–755, Pos 8]	8.72
EPRsPSHCM [single-residue substitution of pMLL747–755, Pos 8]	4.53
EPRsPSHDM [single-residue substitution of pMLL747–755, Pos 8]	5.87
EPRsPSHEM [single-residue substitution of pMLL747–755, Pos 8]	8.26
EPRsPSHFM [single-residue substitution of pMLL747–755, Pos 8]	1.28
EPRsPSHGM [single-residue substitution of pMLL747–755, Pos 8]	1.39

Substance	Percentage GFP positive from TCR+ cells [%]
EPRsPSHHM [single-residue substitution of pMLL747–755, Pos 8]	3.9
EPRsPSHIM [single-residue substitution of pMLL747–755, Pos 8]	3.8
EPRsPSHKM [single-residue substitution of pMLL747–755, Pos 8]	2.14
EPRsPSHLM [single-residue substitution of pMLL747–755, Pos 8]	6.68
EPRsPSHMM [single-residue substitution of pMLL747–755, Pos 8]	5.43
EPRsPSHNM [single-residue substitution of pMLL747–755, Pos 8]	2.91
EPRsPSHPM [single-residue substitution of pMLL747–755, Pos 8]	2.91
EPRsPSHQM [single-residue substitution of pMLL747–755, Pos 8]	2.83
EPRsPSHRM [single-residue substitution of pMLL747–755, Pos 8]	1.29
EPRsPSHTM [single-residue substitution of pMLL747–755, Pos 8]	1.97
EPRsPSHVM [single-residue substitution of pMLL747–755, Pos 8]	3.82
EPRsPSHWM [single-residue substitution of pMLL747–755, Pos 8]	0.87
EPRsPSHYM [single-residue substitution of pMLL747–755, Pos 8]	1.1
EPRsPSISM [single-residue substitution of pMLL747–755, Pos 7]	1.77
EPRsPSKSM [single-residue substitution of pMLL747–755, Pos 7]	0.69
EPRsPSLSM [single-residue substitution of pMLL747–755, Pos 7]	0.77
EPRsPSMSM [single-residue substitution of pMLL747–755, Pos 7]	1.05
EPRsPSNSM [single-residue substitution of pMLL747–755, Pos 7]	1.24
EPRsPSPSM [single-residue substitution of pMLL747–755, Pos 7]	0.81
EPRsPSQSM [single-residue substitution of pMLL747–755, Pos 7]	2.94

Substance	Percentage GFP positive from TCR+ cells [%]
EPRsPSRSM [single-residue substitution of pMLL747–755, Pos 7]	1.16
EPRsPSSSM [single-residue substitution of pMLL747–755, Pos 7]	1.6
EPRsPSTSM [single-residue substitution of pMLL747–755, Pos 7]	3.23
EPRsPSVSM [single-residue substitution of pMLL747–755, Pos 7]	2.51
EPRsPSWSM [single-residue substitution of pMLL747–755, Pos 7]	1.19
EPRsPSYSM [single-residue substitution of pMLL747–755, Pos 7]	2.33
EPRsPTHSM [single-residue substitution of pMLL747–755, Pos 6]	1.88
EPRsPVHSM [single-residue substitution of pMLL747–755, Pos 6]	0.85
EPRsPWHSM [single-residue substitution of pMLL747–755, Pos 6]	0.66
EPRsPYHSM [single-residue substitution of pMLL747–755, Pos 6]	0.75
EPRsQSHSM [single-residue substitution of pMLL747–755, Pos 5]	0.72
EPRsRSHSM [single-residue substitution of pMLL747–755, Pos 5]	0.73
EPRsSSHSM [single-residue substitution of pMLL747–755, Pos 5]	0.79
EPRsTSHSM [single-residue substitution of pMLL747–755, Pos 5]	0.78
EPRsVSHSM [single-residue substitution of pMLL747–755, Pos 5]	0.96
EPRsWSHSM [single-residue substitution of pMLL747–755, Pos 5]	1.08
EPRsYSHSM [single-residue substitution of pMLL747–755, Pos 5]	1
EPSsPSHSM [single-residue substitution of pMLL747–755, Pos 3]	2.7
EPTsPSHSM [single-residue substitution of pMLL747–755, Pos 3]	1.16
